Data reported in patent US9248115B2, “Silibinin component for the treatment of hepatitis” (MADAUS GmbH, priority 2007, dated 2016).
Like-named read-outs stand apart in the source and are kept apart here.

How the values were obtained:
[1] = Example 3: plasma pharmacokinetics of free and total silibinin A and B after Legalon SIL infusion (HPLC-UV); format: in vivo, human; details: for AUC(0-∞), free silibinin: 20 mg/kg iv Legalon SIL, 8 hepatitis C patients; for AUC(0-∞), free silibinin / MRT / Tmax / clearance / Vd / half-life: plasma; for MRT / Tmax / clearance / Vd / half-life: human, intravenous, 20 mg/kg; for clearance: read-out: CL, free silibinin (converted); for Vd: read-out: Vz, free silibinin; for half-life: read-out: t1/2, free silibinin (converted)
Description: An in vivo study was performed to characterize plasma concentration/time profiles of silibinin in 8 patients suffering from chronic hepatitis C who received 7 days i.v. infusion treatment with 20 mg silibinin/kg body weight (Legalon® SIL). For multiple doses of 20 mg/kg body weight, plasma concentration/time profiles and PK parameters of free and total silibinin had been observed on day 1 (=single dose conditions) and were compared with those on day 7 (=expected steady state conditions).
The study samples were analyzed using a validated HPLC-UV method. During the assay period the analytical procedure was validated by two calibration curves per analytical run.

[2] = test system: mouse cell line L929; format: cell-based
Description: An in vitro study was performed to assess the cytotoxic potential of silymarin, silibinin, silibinin bis(hydrogensuccinate) disodium salt, and succinic acid by means of the XTT test using the mouse cell line L929 (cf. D. A. Scudiero et al., Cancer Res. 48, 4827-33; O, S. Weislow et al., J. Natl. Cancer Inst., 81, 577-86; N. W. Roehm et al., J. Immunol. Methods, 142). The following concentrations of the test items were tested: 9.77, 19.53, 39.06, 78.13, 156.25, 312.5, 625, 1250 μg/mL. Complete medium (RPMI 1640 containing 10% (v/v) FCS) was used as negative control. The solvent control for the test item was RPMI 1640 medium containing 10% (v/v) FCS) and 1% DMSO. The solvent control for the positive control was also RPMI 1640 medium containing 10% (v/v) FCS and 10.0% (v/v) deionized water. SDS was used as positive control. The following concentrations were applied: 3.125, 6.25, 12.5, 25, 50, 100, 125, 250 μg/mL. The incubation time was 24 hours at 37±1.5° C.

[3] = molecular target: T1, HCV NS5BΔ21 polymerase genotype J4 (1b) (Hepatitis C virus genotype 1b, UniProt O92972); assay: Cell-free enzyme assay for HCV RdRp activity; format: biochemical
T1 construct: HCV NS5BΔ21 polymerase genotype J4 (1b)
Description: NS5B RNA-dependent RNA polymerase (RdRp) is an essential enzyme fir viral replication (cf. S. B. Hwang et al., Virology 1997, 227, 439-46). The following pure compounds were tested in a cell-free enzyme assay for the detection of HCV RdRp activity: silibinin A, silibinin B, isosilibinin A, isosilibinin B, silichristin, silidianin, and the silibinin ester silibinin-C-2″,3-bis(hydrogensuccinate) disodium (active ingredient of Legalon® SIL).
Stock solutions (100 mM) of the compounds in 100% DMSO were prepared. The concentration of DMSO in all reactions was kept constant at 5%. Target enzyme for the study was HCV NS5BΔ21 polymerase genotype J4 (1b).
The IC50 value of the silibinin ester was determined from the dose-response curve of two measurements. […] Curves were fitted to data points and IC50 values were interpolated from the resulting curves using SigmaPlot 8.0 software.

[4] = Serum ALT during iv silibinin monotherapy (Protocol 1); format: in vivo, human; details: 10 mg/kg/day iv for 7 days; decreased from 162±133; p=0.004
Description: Patients first received daily 10 mg/kg silibinin (Legalon Sil®, Madaus, Köln) infused over 4 hrs for 7 consecutive days. On day 1 blood was drawn for determination of oxidative stress parameters at baseline, every 30 minutes during the infusion and 2 hours after the end of the infusion. On day 8 treatment was changed to 140 mg silymarin (Legalon®, Madaus, Köln) TID per os in combination with 180 μ[…]®; Roche, Basel) and 1-1.2 g/d ribavirin (COPEGUS®; Roche, Basel).

[5] = test system: hepatitis C virus; assay: Protocol 1: serum HCV RNA (TaqMan PCR) in peginterferon/ribavirin nonresponders, iv silibinin for 7 days; format: in vivo, human; details: monotherapy
Description: Patients with previous nonresponse to full dose of peginterferon/ribavirin combination therapy were selected for these studies. […] Patients were required to have a liver biopsy done within 2 years prior inclusion into this study. Standard inclusion/exclusion criteria for peginterferon/ribavirin therapy were applied. Patients first received daily 10 mg/kg silibinin (Legalon Sil®, Madaus, Köln) infused over 4 hrs for 7 consecutive days. On day 1 blood was drawn for determination of oxidative stress parameters at baseline, every 30 minutes during the infusion and 2 hours after the end of the infusion. On day 8 treatment was changed to 140 mg silymarin (Legalon®, Madaus, Köln) TID per os in combination with 180 μ[…]®; Roche, Basel) and 1-1.2 g/d ribavirin (COPEGUS®; Roche, Basel). In both protocols in case of intolerance to PEG-IFN alfa2a or ribavirin, standard dose adjustment guidelines were used. Antiviral combination therapy was given for a total of 24 weeks (with the Option to stop treatment in patients without a >2 log drop at week 12); virologic responders at week 24 were offered to continue treatment for further 48 weeks. After end of the infusion period patients were tested after weeks 2, 4, and then monthly till the end of therapy at week 24. Serum HCV RNA level was determined by the TaqMan PCR assay (Cobas […] TaqMan HCV Test; limit of detection, 15 IU/mL, Roche Diagnostics).

[6] = test system: hepatitis C virus; assay: Example 2: iv silibinin co-treatment during ongoing peginterferon/ribavirin, HCV-RNA; format: in vivo, human
Description: Patients were continuously treated with 180 μg peginterferon alfa 2a and weight based ribavirin. In spite of this treatment, five patients were HCV-RNA positive after 24 weeks of therapy: Three male patients and two female patients; four patients with HCV genotype 1 and one patient with HCV genotype 3a; three patients with cirrhosis. Four patients can be regarded as naïve, whereas one patient can be regarded as […] respect to two previous therapies (24 and 48 weeks). In the course of the ongoing treatment with 180 μg peginterferon alfa 2a and weight based ribavirin, all patients were treated at least once for 14 consecutive days with 20 mg/kg/d silibinin iv. During this period, combination therapy with peginterferon/ribavirin was continued.

T1 sequence (O92972 2420-2989, stated change not applied): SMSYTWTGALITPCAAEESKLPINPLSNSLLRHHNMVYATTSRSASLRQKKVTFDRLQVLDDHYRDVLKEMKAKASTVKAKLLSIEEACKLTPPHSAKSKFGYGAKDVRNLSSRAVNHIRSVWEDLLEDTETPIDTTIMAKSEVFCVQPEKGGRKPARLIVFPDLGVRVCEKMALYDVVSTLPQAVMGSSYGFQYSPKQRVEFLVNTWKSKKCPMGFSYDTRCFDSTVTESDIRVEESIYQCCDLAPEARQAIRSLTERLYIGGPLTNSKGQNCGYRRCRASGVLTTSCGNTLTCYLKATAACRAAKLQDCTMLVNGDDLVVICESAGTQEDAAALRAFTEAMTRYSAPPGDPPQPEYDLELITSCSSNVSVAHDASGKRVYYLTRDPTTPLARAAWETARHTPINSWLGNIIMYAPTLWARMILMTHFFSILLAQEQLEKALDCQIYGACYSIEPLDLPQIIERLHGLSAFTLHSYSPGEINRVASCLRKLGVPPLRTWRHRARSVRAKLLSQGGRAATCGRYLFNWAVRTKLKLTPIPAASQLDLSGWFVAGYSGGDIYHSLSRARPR

COc1cc([C@@H]2Oc3cc([C@H]4Oc5cc(O)cc(O)c5C(=O)[C@@H]4O)ccc3O[C@H]2CO)ccc1O [Silibinin B]
AUC(0-tz), free silibinin ([1]; day 1): 559 ± 339 ng·h/mL
Cmax, free silibinin ([1]; day 1): 90 ± 44 ng/mL
HVD, free silibinin ([1]; day 1): 6.09 ± 2.14 h
AUC(0-∞), free silibinin ([1]; day 1): 753 ± 397 ng·h/mL
% PTF, free silibinin ([1]; day 7): 305.24 ± 80.46%
AUCss, free silibinin ([1]; day 7): 1041 ± 627 ng·h/mL
Cav, free silibinin ([1]; day 7): 43 ± 26 ng/mL
Cmax, free silibinin ([1]; day 7): 120 ± 54 ng/mL
HVD, free silibinin ([1]; day 7): 7.17 ± 1.63 h
MRT ([1]; day 1): 8.81 ± 6.12 h
Tmax ([1]; day 1): 4.03 ± 0.04 h
clearance ([1]; day 1): 747 mL/min/kg
Vd ([1]; day 1): 286 ± 164 L/kg
half-life ([1]; day 1): 310 ± 298 min
MRT ([1]; day 7): 6.27 ± 2.39 h
clearance ([1]; day 7): 447 mL/min/kg
Vd ([1]; day 7): 140 ± 49 L/kg
half-life ([1]; day 7): 261 ± 99.6 min

silymarin
calculated XTT50 value [2]: 35.2 µg/mL
cytotoxic potential higher than that of silibinin [2]: ~100%

COc1cc(C2Oc3cc(C4Oc5cc(O)cc(O)c5C(=O)C4OC(=O)CCC(=O)O)ccc3OC2COC(=O)CCC(=O)O)ccc1O (stereo not drawn) [silibinin C-2′,3-bis(hydrogensuccinate)]
IC50 [3]: 47 ± 14 µM
NS5B inhibition compared with six purified constituents of silymarin ([3]; FIG. 11 vs FIG. 12): most efficient
ALT after iv monotherapy [4]: 118±107 U/1
mean log decline of HCV RNA within one week ([5]; 10 mg/kg/day iv for 7 days): 1.32±0.55 log
Serum HCV RNA at day 8 (mean±SD) ([5]; 10 mg/kg/day iv over 4 h for 7 days, baseline 6.59±0.53, 16 nonresponders, p<0.001): 5.26±0.81 log IU/ml
viral load after second co-treatment, FIG. 7 patient ([6]; 20 mg/kg/day iv 14 days, permanently depressed): below the detection limit
viral load rebound after the first administration interval, FIG. 7 patient ([6]; person): about 2 IU/mL
viral load after co-treatment, FIG. 8 patient ([6]; person, 20 mg/kg/day iv 14 days after 30 weeks, from about log 4 IU/mL, permanent): below the detection limit
viral load after co-treatment, FIG. 9 patient ([6]; person, 20 mg/kg/day iv 14 days after 72 weeks): far below the detection limit
viral load after first co-treatment, FIG. 7 patient ([6]; person, 20 mg/kg/day iv 14 days from week 24, from about log 4.5 IU/mL): below the detection limit

COc1cc([C@H]2Oc3cc([C@H]4Oc5cc(O)cc(O)c5C(=O)[C@@H]4O)ccc3O[C@@H]2CO)ccc1O [Silibinin A]
AUC(0-tz), free silibinin ([1]; day 1): 3302 ± 1551 ng·h/mL
Cmax, free silibinin ([1]; day 1): 316 ± 108 ng/mL
HVD, free silibinin ([1]; day 1): 10.12 ± 4.29 h
AUC(0-∞), free silibinin ([1]; day 1): 3614 ± 1648 ng·h/mL
% PTF, free silibinin ([1]; day 7): 164.00 ± 45.33%
AUCss, free silibinin ([1]; day 7): 4095 ± 1942 ng·h/mL
Cav, free silibinin ([1]; day 7): 171 ± 81 ng/mL
Cmax, free silibinin ([1]; day 7): 315 ± 119 ng/mL
HVD, free silibinin ([1]; day 7): 11.87 ± 2.64 h
MRT ([1]; day 1): 8.49 ± 2.64 h
Tmax ([1]; day 1): 3.73 ± 1.22 h
clearance ([1]; day 1): 117 mL/min/kg
Vd ([1]; day 1): 51.4 ± 12.7 L/kg
half-life ([1]; day 1): 275 ± 81 min
MRT ([1]; day 7): 9.88 ± 1.86 h
clearance ([1]; day 7): 98.3 mL/min/kg
Vd ([1]; day 7): 55.3 ± 18.5 L/kg
half-life ([1]; day 7): 411 ± 77.4 min
